Target: menin protein (Homo sapiens (Human), UniProt O00255)
Test: Fluorescence polarization (FP) competitive binding assay, menin binding affinity
Details: menin protein 4 nM, probe 2 nM, room temperature 30 minutes
Description: A fluorescence polarization (FP) competitive binding assay was used to determine the binding affinities of representative menin inhibitors. A FAM labeled fluorescent probe was designed and synthesized based on a MLL1 peptide (FAM-MM2). Equilibrium dissociation constant (Kd) value of FAM-MM2 to menin protein was determined from protein saturation experiments by monitoring the total fluorescence polarization of mixtures composed with the fluorescent probe at a fixed concentration and the protein with increasing concentrations up to full saturation. Serial dilutions of the protein were mixed with FAM-MM2 to a final volume of 200 μl in the assay buffer (PBS with 0.02% Bovine γ-Globulin and 4% DMSO. 0.01% Triton X-100 was added right before assays). Final FAM-MM2 concentration was 2 nM. Plates were incubated at room temperature for 30 minutes with gentle shaking to assure equilibrium. FP values in millipolarization units (mP) were measured using the Infinite M-1000 plate reader (Tecan U.S., Research Triangle Park, N.C.) in Microfluor 1 96-well, black, v-bottom plates (Thermo Scientific, Waltham, Mass.) at an excitation wavelength of 485 nm and an emission wavelength of 530 nm.
The IC50, see Table 3, of representative Compounds of the Disclosure were determined in a competitive binding experiment. Mixtures of 5 μl of the tested compounds in DMSO and 195 μl of preincubated protein/probe complex solution in the assay buffer were added into assay plates which were incubated at room temperature for 30 minutes with gentle shaking. Final concentration of the menin protein was 4 nM, and final probe concentration is 2 nM. Negative controls containing protein/probe complex only (equivalent to 0% inhibition), and positive controls containing only free probes (equivalent to 100% inhibition), were included in each assay plate. FP values were measured as described above. IC50 values were determined by nonlinear regression fitting of the competition curves.

Chain of menin protein (O00255 whole entry): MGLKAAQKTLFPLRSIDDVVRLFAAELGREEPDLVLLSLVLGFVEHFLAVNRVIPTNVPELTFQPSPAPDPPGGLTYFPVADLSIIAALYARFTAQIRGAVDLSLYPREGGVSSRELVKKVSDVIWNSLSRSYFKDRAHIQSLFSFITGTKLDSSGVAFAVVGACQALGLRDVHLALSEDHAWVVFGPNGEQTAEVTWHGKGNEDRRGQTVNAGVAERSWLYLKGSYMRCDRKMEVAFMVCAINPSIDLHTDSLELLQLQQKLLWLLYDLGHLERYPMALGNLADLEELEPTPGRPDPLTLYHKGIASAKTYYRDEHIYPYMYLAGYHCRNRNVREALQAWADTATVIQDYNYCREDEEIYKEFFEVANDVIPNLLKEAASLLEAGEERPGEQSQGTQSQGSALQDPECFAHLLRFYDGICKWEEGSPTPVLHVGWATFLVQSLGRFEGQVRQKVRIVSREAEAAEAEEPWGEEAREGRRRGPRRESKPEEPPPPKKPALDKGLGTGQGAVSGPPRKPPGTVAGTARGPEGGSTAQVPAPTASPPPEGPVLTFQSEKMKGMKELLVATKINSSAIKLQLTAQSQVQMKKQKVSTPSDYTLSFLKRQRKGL

| Compound | IC50 |
| --- | --- |
| C=CC(=O)N1CC(S(=O)(=O)c2ccc(N3CC(CN4CCC([C@](C#N)(c5cccc(F)c5)[C@H]5CCC[C@@H]5OC(=O)NC)CC4)C3)cc2)C1 [Cpd. No. 2, (1S,2R)-2-((R)-(1-((1-(4-((1-acryloylazetidin-3-yl)sulfonyl)phenyl)azetidin-3-yl)methyl)piperidin-4-yl)(cyano)(3-fluorophenyl)methyl)cyclopentyl methylcarbamate] | 374 nM |
| C=CC(=O)Nc1cccc(S(=O)(=O)c2ccc(N3CC(CN4CCC([C@](C#N)(c5cccc(F)c5)[C@H]5CCC[C@@H]5OC(=O)NC)CC4)C3)cc2)c1 [Cpd. No. 4, (1S,2R)-2-((R)-(1-((1-(4-((3-acrylamidophenyl)sulfonyl)phenyl)azetidin-3-yl)methyl)piperidin-4-yl)(cyano)(3-fluorophenyl)methyl)cyclopentyl methylcarbamate] | 300 nM |
| C=CC(=O)N1CC(S(=O)(=O)c2ccc(N3CC(CN4CCC([C@@](Cn5ccnc5CC)(c5cccc(F)c5)[C@H]5CCC[C@@H]5NC(=O)OC)CC4)C3)cc2)C1 [Cpd. No. 8, methyl ((1S,2R)-2-((S)-1-(1-((1-(4-((1-acryloylazetidin-3-yl)sulfonyl)phenyl)azetidin-3-yl)methyl)piperidin-4-yl)-2-(2-ethyl-1H-imidazol-1-yl)-1-(3-fluorophenyl)ethyl)cyclopentyl)carbamate] | 2 nM |
| C=CC(=O)Nc1cccc(S(=O)(=O)c2ccc(N3CC(F)(CN4CCC([C@@](Cn5ccnc5CC)(c5cccc(F)c5)[C@H]5CCC[C@@H]5NC(=O)OC)CC4)C3)cc2)c1 [Cpd. No. 9, methyl ((1S,2R)-2-((S)-1-(1-((1-(4-((3-acrylamidophenyl)sulfonyl)phenyl)-3-fluoroazetidin-3-yl)methyl)piperidin-4-yl)-2-(2-ethyl-1H-imidazol-1-yl)-1-(3-fluorophenyl)ethyl)cyclopentyl)carbamate] | 2 nM |
| C=CC(=O)Nc1ccc(S(=O)(=O)c2ccc(N3CC(CN4CCC([C@@](C#N)(c5cccc(F)c5)[C@H]5CCC[C@@H]5OC(=O)NC)CC4)C3)cc2)cc1 [Cpd. No. 10, (1S,2R)-2-((S)-(1-((1-(4-((4-acrylamidophenyl)sulfonyl)phenyl)azetidin-3-yl)methyl)piperidin-4-yl)(cyano)(3-fluorophenyl)methyl)cyclopentyl methylcarbamate] | 2 nM |
| C=CC(=O)Nc1ccc(S(=O)(=O)c2ccc(N3CC(CN4CCC([C@](C#N)(c5cccc(F)c5)[C@H]5CCC[C@@H]5OC(=O)NC)CC4)C3)cc2)cc1 [Cpd. No. 11, (1S,2R)-2-((R)-(1-((1-(4-((4-acrylamidophenyl)sulfonyl)phenyl)azetidin-3-yl)methyl)piperidin-4-yl)(cyano)(3-fluorophenyl)methyl)cyclopentyl methylcarbamate] | 2200 nM |
| C=CC(=O)Nc1cccc(S(=O)(=O)c2ccc(N3CC(F)(CN4CCC([C@@](C#N)(c5cccc(F)c5)[C@H]5CCC[C@@H]5NC(=O)OC)CC4)C3)cc2)c1 [Cpd. No. 12, methyl ((1S,2R)-2-((S)-(1-((1-(4-((3-acrylamidophenyl)sulfonyl)phenyl)-3-fluoroazetidin-3-yl)methyl)piperidin-4-yl)(cyano)(3-fluorophenyl)methyl)cyclopentyl)carbamate] | 42 nM |
| C=CC(=O)N1CC(S(=O)(=O)c2ccc(N3CC(F)(CN4CCC([C@@](C#N)(c5cccc(F)c5)[C@H]5CCC[C@@H]5NC(=O)OC)CC4)C3)cc2)C1 [Cpd. No. 13, methyl ((1S,2R)-2-((S)-(1-((1-(4-((1-acryloylazetidin-3-yl)sulfonyl)phenyl)-3-fluoroazetidin-3-yl)methyl)piperidin-4-yl)(cyano)(3-fluorophenyl)methyl)cyclopentyl)carbamate] | 24 nM |
| C=CC(=O)N1CC(S(=O)(=O)c2ccc(N3CC(F)(CN4CCC([C@@](Cn5ccnc5CC)(c5cccc(F)c5)[C@H]5CCC[C@@H]5NC(=O)OC)CC4)C3)cc2)C1 [Cpd. No. 16, methyl ((1S,2R)-2-((S)-1-(1-((1-(4-((1-acryloylazetidin-3-yl)sulfonyl)phenyl)-3-fluoroazetidin-3-yl)methyl)piperidin-4-yl)-2-(2-ethyl-1H-imidazol-1-yl)-1-(3-fluorophenyl)ethyl)cyclopentyl)carbamate] | 2 nM |
| C/C=C/C(=O)N1CC(S(=O)(=O)c2ccc(N3CC(CN4CCC([C@@](C#N)(c5cccc(F)c5)[C@H]5CCC[C@@H]5NC(=O)OC)CC4)C3)cc2)C1 [Cpd. No. 56, methyl ((1S,2R)-2-((S)-(1-((1-(4-((1-((E)-but-2-enoyl)azetidin-3-yl)sulfonyl)phenyl)azetidin-3-yl)methyl)piperidin-4-yl)(cyano)(3-fluorophenyl)methyl)cyclopentyl)carbamate] | 5 nM |
| COC(=O)N[C@H]1CCC[C@@H]1[C@](C#N)(c1cccc(F)c1)C1CCN(CC2CN(c3ccc(S(=O)(=O)c4cccc(NC(=O)/C=C/CN5CCOCC5)c4)cc3)C2)CC1 [Cpd. No. 58, methyl ((1S,2R)-2-((S)-cyano(3-fluorophenyl)(1-((1-(4-((3-((E)-4-morpholinobut-2-enamido)phenyl)sulfonyl)phenyl)azetidin-3-yl)methyl)piperidin-4-yl)methyl)cyclopentyl)carbamate] | 5 nM |
| COC(=O)N[C@H]1CCC[C@@H]1[C@](C#N)(c1cccc(F)c1)C1CCN(CC2CN(c3ccc(S(=O)(=O)C4CN(C(=O)/C=C/CN5CCOCC5)C4)cc3)C2)CC1 [Cpd. No. 59, methyl ((1S,2R)-2-((S)-cyano(3-fluorophenyl)(1-((1-(4-((1-((E)-4-morpholinobut-2-enoyl)azetidin-3-yl)sulfonyl)phenyl)azetidin-3-yl)methyl)piperidin-4-yl)methyl)cyclopentyl)carbamate] | 4 nM |
| C=CC(=O)Nc1ccc(S(=O)(=O)c2ccc(N3CC(CN4CCC([C@@](C#N)(c5cccc(F)c5)[C@H]5CCC[C@@H]5NC(=O)OC)CC4)C3)cc2)cc1 [Cpd. No. 61, methyl ((1S,2R)-2-((S)-(1-((1-(4-((4-acrylamidophenyl)sulfonyl)phenyl)azetidin-3-yl)methyl)piperidin-4-yl)(cyano)(3-fluorophenyl)methyl)cyclopentyl)carbamate] | 4 nM |
| C/C=C/C(=O)Nc1cccc(S(=O)(=O)c2ccc(N3CC(CN4CCC([C@@](C#N)(c5cccc(F)c5)[C@H]5CCC[C@@H]5NC(=O)OC)CC4)C3)cc2)c1 [Cpd. No. 62, methyl ((1S,2R)-2-((S)-(1-((1-(4-((3-((E)-but-2-enamido)phenyl)sulfonyl)phenyl)azetidin-3-yl)methyl)piperidin-4-yl)(cyano)(3-fluorophenyl)methyl)cyclopentyl)carbamate] | 4 nM |
| COC(=O)N[C@H]1CCC[C@@H]1[C@](C#N)(c1cccc(F)c1)C1CCN(CC2CN(c3ccc(S(=O)(=O)c4cccc(NC(=O)/C=C/CN(C)C)c4)cc3)C2)CC1 [Cpd. No. 63, methyl ((1S,2R)-2-((S)-cyano(1-((1-(4-((3-((E)-4-(dimethylamino)but-2-enamido)phenyl)sulfonyl)phenyl)azetidin-3-yl)methyl)piperidin-4-yl)(3-fluorophenyl)methyl)cyclopentyl)carbamate] | 2 nM |
| C=CC(=O)N1CC(S(=O)(=O)c2ccc(OCCOc3ccc([C@@](C#N)(c4cccc(F)c4)[C@H]4CCC[C@@H]4NC(=O)OC)cc3)cc2)C1 [Cpd. No. 64, methyl ((1S,2R)-2-((R)-(4-(2-(4-((1-acryloylazetidin-3-yl)sulfonyl)phenoxy)ethoxy)phenyl)(cyano)(3-fluorophenyl)methyl)cyclopentyl)carbamate] | > 10000 nM |
| C=CC(=O)N1CC(S(=O)(=O)c2ccc(OCCOc3ccc([C@](C#N)(c4cccc(F)c4)[C@H]4CCC[C@@H]4NC(=O)OC)cc3)cc2)C1 [Cpd. No. 65, methyl ((1S,2R)-2-((S)-(4-(2-(4-((1-acryloylazetidin-3-yl)sulfonyl)phenoxy)ethoxy)phenyl)(cyano)(3-fluorophenyl)methyl)cyclopentyl)carbamate] | > 10000 nM |
| CCc1nccn1C[C@@](c1cccc(F)c1)(C1CCN(CC2(F)CN(c3ccc(S(=O)(=O)C4CN(C(=O)/C=C/CN(C)C)C4)cc3)C2)CC1)[C@H]1CCC[C@@H]1NC(=O)OC [Cpd. No. 66, methyl ((1S,2R)-2-((S)-1-(1-((1-(4-((1-((E)-4-(dimethylamino)but-2-enoyl)azetidin-3-yl)sulfonyl)phenyl)-3-fluoroazetidin-3-yl)methyl)piperidin-4-yl)-2-(2-ethyl-1H-imidazol-1-yl)-1-(3-fluorophenyl)ethyl)cyclopentyl)carbamate] | 1 nM |
| COC(=O)N[C@H]1CCC[C@@H]1[C@](C#N)(c1cccc(F)c1)C1CCN(CCCOc2ccc(S(=O)(=O)C3CN(C(=O)/C=C/CN(C)C)C3)cc2)CC1 [Cpd. No. 68, methyl ((1S,2R)-2-((S)-cyano(1-(3-(4-((1-((E)-4-(dimethylamino)but-2-enoyl)azetidin-3-yl)sulfonyl)phenoxy)propyl)piperidin-4-yl)(3-fluorophenyl)methyl)cyclopentyl)carbamate] | 7 nM |

From patent publication US11045448B2, “Piperidines as covalent menin inhibitors” (THE REGENTS OF THE UNIVERSITY OF MICHIGAN, priority 2017, dated 2021)
